Data reported in ChEMBL document CHEMBL1128282 (J Med Chem, 1995).
Active and inactive are the calls of the source. The rule behind the calls is not given here.

Legend:
Melatonin receptor [1] = biological target: T1, Melatonin receptor (Gallus gallus, UniProt P49288+P51050+P49285); assay: Binding affinity in chicken brain membranes by using [2-125I]melatonin in a competition radioligand binding assay; type: cell membranes, Membrane
Xenopus laevis [2] = species on record: Xenopus laevis; assay: Pigment aggregation response in Xenopus laevis Melanophores at 10e-7 M of concentration; Agonist; type: functional; conditions: filed as agonist
Xenopus laevis [3] = species on record: Xenopus laevis; assay: Pigment aggregation response in Xenopus laevis Melanophores at 10e-5 M of concentration; Antagonist; type: functional; conditions: filed as antagonist
Xenopus laevis [4] = species on record: Xenopus laevis; assay: Pigment aggregation response in Xenopus laevis Melanophores; Antagonist; type: functional; conditions: filed as antagonist
Xenopus laevis [5] = species on record: Xenopus laevis; assay: Pigment aggregation response in Xenopus laevis Melanophores at 10e-5 M of concentration; No agonist response; type: functional
Xenopus laevis [6] = species on record: Xenopus laevis; assay: Pigment aggregation response in Xenopus laevis Melanophores at 10e-8 M of concentration; Agonist response; type: functional; conditions: filed as agonist
Xenopus laevis [7] = species on record: Xenopus laevis; assay: Pigment aggregation response in Xenopus laevis Melanophores at 10e-6 M of concentration; Agonist; type: functional; conditions: filed as agonist
Xenopus laevis [8] = species on record: Xenopus laevis; assay: Pigment aggregation response in Xenopus laevis Melanophores at 10e-5 M of concentration; No Agonist/antagonist response; type: functional
Xenopus laevis [9] = species on record: Xenopus laevis; assay: Pigment aggregation response in Xenopus laevis Melanophores at 10e-5 M of concentration; Agonist; type: functional; conditions: filed as agonist
Melatonin receptor [10] = biological target: T1, Melatonin receptor; assay: Binding affinity in chicken brain membranes by using [2-125I]melatonin in a competition radioligand binding assay.; type: cell membranes, Membrane
Xenopus laevis [11] = species on record: Xenopus laevis; assay: Pigment aggregation response in Xenopus laevis Melanophores at 10e-5 M of concentration; No Agonist response; type: functional

SMILES | Ki (Melatonin receptor [1]) | Response (Xenopus laevis [7]) | further results
CC(=O)NCC(C)c1c(-c2ccccc2)n(C)c2ccccc12 (stereo not given) | 5.9 nM | – | Response (Xenopus laevis [2]): Agonist
COCC(CNC(=O)C1CCC1)c1c(-c2ccccc2)n(C)c2ccccc12 (stereo not given) | 659 nM | – | Response (Xenopus laevis [3]): Antagonist
O=C(NCCc1c(-c2ccccc2)[nH]c2ccccc12)C1CCC1 | 565 nM | – | Response (Xenopus laevis [4]): Antagonist
CC(Br)C(=O)NCCc1c(-c2ccccc2)[nH]c2ccccc12 (stereo not given) | 1900 nM | – | Response (Xenopus laevis [5]): inactive
COc1ccc2[nH]c(-c3ccccc3)c(CCNC(=O)C3CC3)c2c1 | 0.3047 nM | – | –
COc1ccc2[nH]cc(CCNC(C)=O)c2c1 | – | – | Response (Xenopus laevis [6]): Agonist
COc1ccc2[nH]c(-c3ccccc3)c(CCNC(=O)CCc3ccccc3)c2c1 | 263 nM | Agonist | –
CCCC(=O)NCCc1c(-c2ccccc2)[nH]c2ccc(OC)cc12 | 0.0558 nM | – | –
O=C(NCCc1c(-c2ccccc2)[nH]c2ccccc12)C1CCCC1 | 633 nM | – | Response (Xenopus laevis [4]): Antagonist
CC(CNC(=O)C1CCC1)c1c(-c2ccccc2)n(C)c2ccccc12 (stereo not given) | 222 nM | – | Response (Xenopus laevis [3]): Antagonist
COc1ccc2[nH]c(-c3ccccc3)c(CCNC(=O)C3CCC3)c2c1 | 2.7 nM | Agonist | –
COc1ccc2[nH]c(-c3ccccc3)c(CCNC(=O)C3CCCC3)c2c1 | 32.8 nM | Agonist | –
CC(=O)NCCc1c(-c2ccccc2)[nH]c2ccccc12 | 100 nM | Agonist | –
[N-]=[N+]=NCC(=O)NCCc1c(-c2ccccc2)[nH]c2ccccc12 | 410 nM | Agonist | –
O=C(CBr)NCCc1c(-c2ccccc2)[nH]c2ccccc12 | 55 nM | Agonist | –
COc1ccc2[nH]c(-c3ccccc3)c(CCNC(=O)C(F)(F)F)c2c1 | 0.019 nM | – | –

SMILES | Ki (Melatonin receptor [1]) | Response (Xenopus laevis [7]) | further results
COc1ccc2[nH]c(-c3ccccc3)c(CCNC(=O)C34C[C@H]5C[C@@H](C3)C[C@@H](C4)C5)c2c1 | 1100 nM | Agonist | –
O=C(CCc1ccccc1)NCCc1c(-c2ccccc2)[nH]c2ccccc12 | 7000 nM | – | Response (Xenopus laevis [8]): inactive
CCCC(=O)NCCc1c(-c2ccccc2)[nH]c2ccccc12 | 112 nM | Agonist | –
O=C(NCCc1c(-c2ccccc2)[nH]c2ccccc12)C1CCCCC1 | 1550 nM | – | Response (Xenopus laevis [4]): Antagonist
O=C(NCCc1c(-c2ccccc2)[nH]c2ccccc12)C(F)(F)F | 148 nM | Agonist | –
CCn1c(-c2ccccc2)c(CCNC(C)=O)c2ccccc21 | 154 nM | – | Response (Xenopus laevis [9]): Agonist
O=C(NCCc1c(-c2ccccc2)[nH]c2ccccc12)C12C[C@H]3C[C@@H](C1)C[C@@H](C2)C3 | 1100 nM | – | Response (Xenopus laevis [8]): inactive
Cn1c(-c2ccccc2)c(CCNC(=O)C2CCC2)c2ccccc21 | 726 nM | – | Response (Xenopus laevis [3]): Antagonist
CC(=O)NCCc1c(-c2ccccc2)n(C)c2ccccc12 | 63 nM | Agonist | –
COc1ccc2[nH]c(-c3ccccc3)c(CCNC(C)=O)c2c1 | 0.0596 nM | – | Response (Xenopus laevis [6]): Agonist
CCC(=O)NCCc1c(-c2ccccc2)[nH]c2ccccc12 | 70 nM | Agonist | –
COc1ccc2[nH]c(-c3ccccc3)c(CCNC(=O)C3CCCCC3)c2c1 | 216 nM | Agonist | –
COCC(CNC(C)=O)c1c(-c2ccccc2)n(C)c2ccccc12 (stereo not given) | – | – | Response (Xenopus laevis [3]): Antagonist; Ki (Melatonin receptor [10]): 350 nM
CCC(=O)NCCc1c(-c2ccccc2)[nH]c2ccc(OC)cc12 | 0.0466 nM | – | Response (Xenopus laevis [6]): Agonist
O=C(NCCc1c(-c2ccccc2)[nH]c2ccccc12)C(F)(F)C(F)(F)F | 6500 nM | – | Response (Xenopus laevis [11]): inactive
O=C(NCCc1c(-c2ccccc2)[nH]c2ccccc12)C1CC1 | 213 nM | – | Response (Xenopus laevis [4]): Antagonist
